From the NIST ThermoML archive (doi:10.1016/j.jct.2018.10.006)

Assay: molar heat capacity at constant pressure
Conditions: 101.33 kPa, Crystal 2

O=P([O-])([O-])[O-].[Cs+].[Ni+2] [cesium nickel monophosphate]
Conditions	molar heat capacity at constant pressure [J/K/mol]
160 K, Small (less than 1 g) adiabatic calorimetry	103.68
162.35 K, Small (less than 1 g) adiabatic calorimetry	104.76
165.65 K, Small (less than 1 g) adiabatic calorimetry	106.01
168.95 K, Small (less than 1 g) adiabatic calorimetry	107.84
170 K, Small (less than 1 g) adiabatic calorimetry	107.84
172.25 K, Small (less than 1 g) adiabatic calorimetry	108.75
175.54 K, Small (less than 1 g) adiabatic calorimetry	109.83
178.83 K, Small (less than 1 g) adiabatic calorimetry	111.5
180 K, Small (less than 1 g) adiabatic calorimetry	111.83
182.12 K, Small (less than 1 g) adiabatic calorimetry	112.83
185.4 K, Small (less than 1 g) adiabatic calorimetry	113.82
188.67 K, Small (less than 1 g) adiabatic calorimetry	115.24
190 K, Small (less than 1 g) adiabatic calorimetry	115.4
191.94 K, Small (less than 1 g) adiabatic calorimetry	116.32
195.21 K, Small (less than 1 g) adiabatic calorimetry	116.98
198.48 K, Small (less than 1 g) adiabatic calorimetry	118.07
200 K, Small (less than 1 g) adiabatic calorimetry	118.73
201.74 K, Small (less than 1 g) adiabatic calorimetry	119.56
205 K, Small (less than 1 g) adiabatic calorimetry	120.14
208.27 K, Small (less than 1 g) adiabatic calorimetry	121.06
210 K, Small (less than 1 g) adiabatic calorimetry	121.64
211.53 K, Small (less than 1 g) adiabatic calorimetry	122.14
214.79 K, Small (less than 1 g) adiabatic calorimetry	122.56
218.05 K, Small (less than 1 g) adiabatic calorimetry	123.64
220 K, Small (less than 1 g) adiabatic calorimetry	124.38
221.32 K, Small (less than 1 g) adiabatic calorimetry	124.22
224.58 K, Small (less than 1 g) adiabatic calorimetry	125.63
227.84 K, Small (less than 1 g) adiabatic calorimetry	126.38
230 K, Small (less than 1 g) adiabatic calorimetry	126.88
231.11 K, Small (less than 1 g) adiabatic calorimetry	127.13
234.38 K, Small (less than 1 g) adiabatic calorimetry	128.21
237.64 K, Small (less than 1 g) adiabatic calorimetry	129.12
240 K, Small (less than 1 g) adiabatic calorimetry	129.37
240.88 K, Small (less than 1 g) adiabatic calorimetry	129.62
244.15 K, Small (less than 1 g) adiabatic calorimetry	130.7
247.41 K, Small (less than 1 g) adiabatic calorimetry	131.53
250 K, Small (less than 1 g) adiabatic calorimetry	132.03
250.68 K, Small (less than 1 g) adiabatic calorimetry	132.28
253.95 K, Small (less than 1 g) adiabatic calorimetry	133.03
257.21 K, Small (less than 1 g) adiabatic calorimetry	133.7
260 K, Small (less than 1 g) adiabatic calorimetry	134.94
260.47 K, Small (less than 1 g) adiabatic calorimetry	135.11
263.74 K, Small (less than 1 g) adiabatic calorimetry	135.94
266.99 K, Small (less than 1 g) adiabatic calorimetry	137.19
270 K, Small (less than 1 g) adiabatic calorimetry	138.19
270.25 K, Small (less than 1 g) adiabatic calorimetry	138.69
273.15 K, Small (less than 1 g) adiabatic calorimetry	139.27
273.51 K, Small (less than 1 g) adiabatic calorimetry	139.52
276.77 K, Small (less than 1 g) adiabatic calorimetry	140.43
280 K, Small (less than 1 g) adiabatic calorimetry	141.68
280.02 K, Small (less than 1 g) adiabatic calorimetry	141.6
283.26 K, Small (less than 1 g) adiabatic calorimetry	142.68
286.51 K, Small (less than 1 g) adiabatic calorimetry	143.84
289.74 K, Small (less than 1 g) adiabatic calorimetry	145
290 K, Small (less than 1 g) adiabatic calorimetry	145.42
292.94 K, Small (less than 1 g) adiabatic calorimetry	146.5
296.16 K, Small (less than 1 g) adiabatic calorimetry	147.25
298.15 K, Small (less than 1 g) adiabatic calorimetry	148.41
299.38 K, Small (less than 1 g) adiabatic calorimetry	148.58
300 K, Small (less than 1 g) adiabatic calorimetry	149.08
302.59 K, Small (less than 1 g) adiabatic calorimetry	150.41
305.8 K, Small (less than 1 g) adiabatic calorimetry	151.41
309.01 K, Small (less than 1 g) adiabatic calorimetry	152.57
310 K, Small (less than 1 g) adiabatic calorimetry	152.65
312.23 K, Small (less than 1 g) adiabatic calorimetry	153.82
315.44 K, Small (less than 1 g) adiabatic calorimetry	154.82
318.66 K, Small (less than 1 g) adiabatic calorimetry	155.48
320 K, Small (less than 1 g) adiabatic calorimetry	155.9
320.8 K, DSC	155.48
321.8 K, DSC	156.31
321.9 K, Small (less than 1 g) adiabatic calorimetry	156.23
322.8 K, DSC	156.31
323.8 K, DSC	156.31
324.8 K, DSC	157.14
325.15 K, Small (less than 1 g) adiabatic calorimetry	157.39
325.8 K, DSC	157.14
326.8 K, DSC	157.97
327.8 K, DSC	157.97
328.41 K, Small (less than 1 g) adiabatic calorimetry	158.22
328.8 K, DSC	158.81
329.8 K, DSC	158.81
330 K, Small (less than 1 g) adiabatic calorimetry	158.89
330.8 K, DSC	159.64
331.69 K, Small (less than 1 g) adiabatic calorimetry	159.39
331.8 K, DSC	159.64
332.8 K, DSC	159.64
333.8 K, DSC	160.47
334.8 K, DSC	160.47
334.97 K, Small (less than 1 g) adiabatic calorimetry	160.3
335.8 K, DSC	161.3
336.8 K, DSC	161.3
337.8 K, DSC	161.3
338.28 K, Small (less than 1 g) adiabatic calorimetry	161.22
338.8 K, DSC	162.13
339.8 K, DSC	162.13
340 K, Small (less than 1 g) adiabatic calorimetry	161.97
340.8 K, DSC	162.13
341.58 K, Small (less than 1 g) adiabatic calorimetry	162.8
341.8 K, DSC	162.96
342.8 K, DSC	162.96
343.8 K, DSC	162.96
